Laboratory results: US9145354B2, “Pharmaceutical compounds” (priority 2011, dated 2015)
pEC50, pIC50: −log10 of the molar value. Where two headings read alike, the source gives them in different places.

Legend:
full length NS3/4a = full length NS3/4a (Hepatitis C virus genotype 1b (isolate BK) (HCV), UniProt P26663); test: NS3 Protease Assay (Example A), FRET-based; format: biochemical; details: for IC50: HCV NS3 protease assay, full length NS3/4a, read-out: Assay A IC50 (μM) average; for pIC50: read-out: IC50 against the protease activity of the full length NS3/4a
How it was run: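 Initial rates were taken from fluorescence progress curves over 30 min at room temperature, and IC50 was fitted across replicates. In-house full-length NS3/4a cleaved a FRET peptide (5-FAMsp/QXL520) from the NS4A/B site. Medium: 50 mM Tris pH8, 20 mM DTT, 1% CHAPS, 10% glycerol, 5% DMSO.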

[1] = system: HCV subgenomic replicon in Huh-7 cells; test: Replicon Assay (Example B), luciferase readout EC50; format: cell-based
How it was run: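 Huh-7 cells carrying a luciferase-neo HCV subgenomic replicon (NS3–NS5b) were treated with semilog compound dilutions (0.1% DMSO final), in triplicate, for 72 h at 37° C. EC50 came from Bright-Glo luciferase signal as a proxy for replicon RNA; viability was read by Alamar blue.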

[2] = Replicon Assay (Example B), Alamar Blue cytotoxicity CC50; format: cell-based; details: human, lower value of the cell pair
How it was run: (§1)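 Huh-7 cells carrying a luciferase/neo HCV subgenomic replicon (NS3–NS5b) were treated with semilog compound dilutions in triplicate (0.1% DMSO) for 72 h at 37 °C. Viability came from Alamar blue resazurin-to-resorufin fluorescence (535/590 nm) for CC50. EC50 came from Bright-Glo luciferase luminescence as a proxy for HCV RNA.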

[3] = system: compound resistant HCV replicon variants in replicon bearing cells; test: Colony forming assay for compound resistant HCV replicon variants (Example C); format: cell-based; details: up to 10x EC50, 1 mg/ml geneticin, 24 days, coomasie blue staining
Procedure: The existence of compound resistant HCV replicon quasispecies was analysed using colony forming assays, where the emergence of compound resistant HCV replicon variants can allow production sufficient replicon encoded neomycin for cellular survival in medium containing 1 mg/ml geneticin (Life Technologies). 4,000 replicon bearing cells were plated/well on 12 well plates, and allowed to adhere overnight. […] The medium used also contained 1 mg/ml geneticin. Plates were then incubated at 37° C. in an atmosphere of 5% CO2 and air for 24 days the medium/compound solution with 1 mg/ml gentamicin was replaced twice every 7 days, before staining surviving colonies with coomasie blue.

[4] = system: Huh-7 cells persistently infected with the HCV subgenomic replicon; test: Replicon Assay (Example B), Alamar Blue cytotoxicity CC50; format: cell-based; details: lower value of the cell pair
How it was run: as §1

[5] = Hepatitis C virus, Huh-7, replicon assay, luciferase readout, upper value of the cell pair, read-out: Assay B EC50

full length NS3/4a, sequence (P26663 1027-1657): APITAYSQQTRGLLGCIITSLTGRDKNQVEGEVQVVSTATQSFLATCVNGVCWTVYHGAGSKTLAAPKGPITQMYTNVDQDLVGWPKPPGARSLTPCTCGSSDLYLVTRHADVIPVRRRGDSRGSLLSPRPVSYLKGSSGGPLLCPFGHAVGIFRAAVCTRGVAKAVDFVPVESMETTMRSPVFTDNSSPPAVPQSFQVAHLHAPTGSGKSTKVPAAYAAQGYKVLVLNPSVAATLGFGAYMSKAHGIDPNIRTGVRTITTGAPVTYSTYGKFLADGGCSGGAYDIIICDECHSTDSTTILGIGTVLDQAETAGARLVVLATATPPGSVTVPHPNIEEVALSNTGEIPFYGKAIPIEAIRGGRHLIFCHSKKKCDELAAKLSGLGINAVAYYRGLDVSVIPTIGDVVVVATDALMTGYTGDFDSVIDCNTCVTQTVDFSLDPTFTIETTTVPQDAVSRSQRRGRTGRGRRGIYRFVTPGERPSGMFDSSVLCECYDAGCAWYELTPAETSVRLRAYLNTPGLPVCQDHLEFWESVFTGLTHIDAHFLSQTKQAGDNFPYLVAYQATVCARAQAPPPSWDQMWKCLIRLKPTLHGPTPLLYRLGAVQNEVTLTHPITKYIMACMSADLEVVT

Compound | IC50 (full length NS3/4a) [µM] | pEC50 [1, 5] | CC50 at 72 h [2] [nM] | pIC50 (full length NS3/4a) | further results
CC[C@@H](N[C@@H](C)CC(N)=O)c1ccc(Cl)c(C(=O)c2ccccc2)c1F [Example 84, (3S)-3-{[(1R)-1-(3-benzoyl-4-chloro-2-fluorophenyl)-propyl]-amino}butanamide] | 0.057 | 8.22 | > 3000 | – | pEC50 ([1]; Hepatitis C virus, Huh-7, pre-determined EC50 used to set concentrations in combination studies, read-out: EC50 (replicon)): 8.22; emergence of compound resistant colonies [3]: prevented
CCC(NC1CCCC1C(N)=O)c1ccc(Cl)c(C(=O)c2ccc(N)nc2)c1F (racemic) [Example 126, 2-{[1-{3-[(6-aminopyridin-3-yl)carbonyl]-4-chloro-2-fluorophenyl}propyl]amino} cyclopentane-1-carboxamide] | – | – | – | – | pEC50 ([1]; replicon assay, luciferase readout, upper value of the cell pair, read-out: Assay B EC50): 7.04; CC50 [4]: > 3000 nM
C[C@@H](CC(N)=O)N[C@@H](c1ccc(Cl)c(C(=O)c2ccc(F)cc2)c1F)C1CC1 [Example 121, (3S)-3-{[(R)-{4-chloro-2-fluoro-3-[(4-fluorophenyl)-carbonyl]phenyl}(cyclopropyl)methyl]amino}butanamide] | – | 8.00 | > 3000 | – | inhibition at 0.03 µM (full length NS3/4a; @ 0.03 uM): 38%
CC[C@@H](NCC1(C(N)=O)CC1)c1ccc(Cl)c(C(=O)c2cccnc2)c1F [Example 168, 1-({[(1R)-1-{4-Chloro-2-fluoro-3-[(pyridin-3-yl)carbonyl]phenyl}propyl]amino}methyl)-cyclopropane-1-carboxamide] | 0.55 | < 5.52 | > 3000 | > 6.00 | –
COc1ccc([C@H](N[C@@H](C)CC(N)=O)C2CC2)c(F)c1C(=O)c1cccc(F)c1 [Example 224, (3S)-3-{[(R)-cyclopropyl({2-fluoro-3-[(3-fluorophenyl)carbonyl]-4-methoxyphenyl})methyl]amino}butanamide] | 0.081 | 6.72 | > 3000 | – | –
CC[C@@H](NC(C)(C)CC(N)=O)c1ccc(Cl)c(C(=O)c2cccnc2)c1F [Example 113, 3-{[(1R)-1-{4-Chloro-2-fluoro-3-[(pyridin-3-yl)carbonyl]phenyl}propyl]amino}-3-methylbutanamide] | 0.093 | 6.74 | > 3000 | – | –
CC[C@@H](N[C@@H](C)CC(N)=O)c1ccc(Cl)c(C(=O)c2ccc(-n3cc(CO)cn3)nc2)c1F [Example 159, (3S)-3-{[(1R)-1-[4-chloro-2-fluoro-3-({6-[4-(hydroxymethyl)-1H-pyrazol-1-yl]pyridin-3-yl}carbonyl)phenyl]-propyl]amino}-butanamide] | 0.24 | 7.00 | > 10000 | – | –
CC[C@@H](NCCC(N)=O)c1ccc(Cl)c(C(=O)c2cccnc2)c1F [Example 162, 3-{[(1R)-1-{4-Chloro-2-fluoro-3-[(pyridin-3-yl)carbonyl]phenyl}propyl]amino}propanamide] | 0.59 | < 5.52 | > 3000 | > 6.00 | –
C[C@@H](CC(N)=O)N[C@@H](c1ccc(Cl)c(C(=O)c2cccnc2)c1F)C1CC1 [Example 119, (3S)-3-{[(R)-{4-chloro-2-fluoro-3-[(pyridin-3-yl)carbonyl]phenyl} (cyclopropyl)methyl]amino}-butanamide] | 0.12 | 7.15 | > 3000 | > 6.00 | –
CCC[C@@H](N[C@@H](C)CC(N)=O)c1ccc(Cl)c(C(=O)c2ccc(N)nc2)c1F [Example 258, (3S)-3-{[(1R)-1-{3-[(6-aminopyridin-3-yl)carbonyl]-4-chloro-2-fluorophenyl}butyl]amino} butanamide] | 0.28 | 7.70 | > 1000 | > 6.00 | –
C=CC[C@@H](N[C@@H](C)CC(N)=O)c1ccc(Cl)c(C(=O)c2ccc(N)nc2)c1F [Example 256, (3S)-3-{[(1R)-1-{3-[(6-aminopyridin-3-yl)carbonyl]-4-chloro-2-fluorophenyl}but-3-en-1-yl]amino} butanamide] | 0.47 | 7.34 | > 1000 | – | –
N[C@@H](c1ccc(Cl)c(C(=O)c2ccccc2)c1F)C1CC1 [Example 11, (R)-(3-benzoyl-4-chloro-2-fluorophenyl)-(cyclopropyl)-methanamine] | 0.13 | < 5.52 | > 3000 | > 6.00 | –
CC[C@H](NCCO)c1ccc(Cl)c(C(=O)c2ccccc2)c1F [Example 171, 2-{[(1S)-1-(3-benzoyl-4-chloro-2-fluorophenyl)propyl]-amino}ethan-1-ol] | 0.056 | < 5.52 | > 3000 | > 6.00 | –
CC[C@@H](N[C@@H](C)CC(N)=O)c1ccc(Cl)c(C(=O)c2ccc(F)cc2)c1F [Example 97, (3S)-3-{[(1R)-1-{4-chloro-2-fluoro-3-[(4-fluorophenyl)-carbonyl]-phenyl}propyl]-amino}-butanamide] | 0.047 | 7.72 | > 3000 | – | –
[2H]C([2H])([2H])C([2H])([2H])[C@@H](N[C@@H](C)CC(N)=O)c1ccc(Cl)c(C(=O)c2ccc3c(c2)OCC(=O)N3)c1F [Example 280, (3S)-3-{[(1R)-1-{4-chloro-2-fluoro-3-[(3-oxo-3,4-dihydro-2H-1,4-benzoxazin-7-yl)carbonyl]phenyl}(2,2,3,3,3-pentadeuteryl)propyl]amino} butanamide] | 0.3 | 7.60 | > 3000 | – | –
[2H]C([2H])([2H])C([2H])([2H])[C@@H](N[C@@H](C)CC(N)=O)c1ccc(Cl)c(C(=O)c2ccccc2)c1F [Example 115, (3S)-3-{[(1R)-1-(3-benzoyl-4-chloro-2-fluorophenyl)(2,2,3,3,3-D)propyl]amino}-butanamide] | – | 8.39 | > 3000 | – | inhibition at 0.1 µM (full length NS3/4a): 59%
C[C@@H](CC(N)=O)N[C@@H](c1ccc(Cl)c(C(=O)c2ccc(C#N)cn2)c1F)C1CC1 [Example 238, (3S)-3-{[(R)-{4-chloro-3-[(5-cyanopyridin-2-yl)carbonyl]-2-fluorophenyl}(cyclopropyl)methyl]amino}butanamide] | 0.11 | 7.52 | > 1000 | – | –
CC(C)C[C@@H](N[C@@H](C)CC(N)=O)c1ccc(Cl)c(C(=O)c2ccc(N)nc2)c1F [Example 269, (3S)-3-{[(1R)-1-{3-[(6-aminopyridin-3-yl)carbonyl]-4-chloro-2-fluorophenyl}-3-methylbutyl]amino}-butanamide] | 1.1 | 7.15 | > 3000 | 5.30 to 6.00 | –
C[C@@H](CC(N)=O)N[C@@H](c1ccc(Cl)c(C(=O)c2ccc(CO)cc2)c1F)C1CC1 [Example 263, (3S)-3-{[(R)-(4-chloro-2-fluoro-3-{[4-(hydroxyl-methyl)phenyl]-carbonyl}phenyl)(cyclo-propyl)-methyl]amino}-butanamide] | 0.11 | 8.40 | 79000 | – | –
CC[C@H](N[C@H](C)CO)c1ccc(Cl)c(C(=O)c2ccc(N)nc2)c1F [Example 178, (2R)-2-{[(1S)-1-{3-[(6-aminopyridin-3-yl)carbonyl]-4-chloro-2-fluorophenyl}propyl]-amino}propan-1-ol] | 0.088 | 6.60 | > 3000 | – | –
Cc1cc(C(=O)c2c(Cl)ccc([C@H](N[C@@H](C)CC(N)=O)C3CC3)c2F)ccc1N [Example 262, (3S)-3-{[(R)-{3-[(4-amino-3-methylphenyl)carbonyl]-4-chloro-2-fluorophenyl}-(cyclopropyl)-methyl]-amino}butanamide] | – | 8.07 | > 1000 | – | inhibition at 0.1 µM (full length NS3/4a): 32%
CC[C@@H](N[C@@H](C)CC(N)=O)c1ccc(Cl)c(C(=O)c2cccc(C#N)c2)c1F [Example 101, (3S)-3-{[(1R)-1-{4-chloro-3-[(3-cyanophenyl)carbonyl]-2-fluorophenyl}propyl]amino}-butanamide] | 0.11 | 6.80 | > 3000 | > 6.00 | –
CC[C@@H](NCCC(N)=O)c1ccc(Cl)c(C(=O)c2ccccc2)c1F [Example 167, 3-{[(1R)-1-(3-Benzoyl-4-chloro-2-fluorophenyl)propyl]amino}-propanamide] | 0.098 | 6.20 | > 3000 | > 6.00 | –
